According to paper PMC4890880 (ACS infectious diseases, 2016):
Like-named read-outs stand apart in the source and are kept apart here.

Legend:
[1] = system: HepG2-A16-CD81EGFP cells; assay: cells; conditions: Homo sapiens, HepG2, read-out: % inhibition
[2] = system: Plasmodium berghei (Pb-Luc) exoerythrocytic-stage parasites; assay: microbe, parasite or virus in culture
[3] = read-out: Inhibition% @ 50 uM rep1
[4] = read-out: Inhibition% @ 50 uM rep2

Compound	inhibition at 50 µM [1] [%]	inhibition at 50 µM [2, 3] [%]	inhibition at 50 µM [2, 4] [%]
COc1ccc(C2C(C(=O)Nc3cccc(OC)c3)c3ccccc3C(=O)N2C2CCCCC2)cc1 (stereo not drawn) [MMV008455]	28	94	92
CCOc1ccc2nc(C)cc(Nc3ccc(Br)cc3)c2c1 [MMV006522]	98.8	102	104
COc1ccc(C(O)(CCC(C)C)C(CN2CCOCC2)c2ccc(Cl)cc2)cc1 (stereo not drawn) [MMV000617]	98.4	103	103
CCc1ccc(CNCC(O)c2ccccc2)cc1 (stereo not drawn) [MMV665812]	94.8	98	99
Cn1c(=O)n(C)c2cc(CNCCNc3ccnc4cc(Cl)ccc34)ccc21 [MMV665875]	45.3	92	92
O=C(Cc1ccccc1)NC(c1ccc(Cl)cc1)c1c(O)ccc2ccccc12 (stereo not drawn) [MMV665972]	97.4	101	101
CCn1c2c(c(=N)c3c1CCC3)CCCC2 [MMV000340]	75.3	102	102
COc1cc2c3cc1Oc1c(OC)c(OC)cc4c1C(Cc1ccc(O)c(c1)Oc1ccc(cc1)CC3N(C)CC2)N(C)CC4 (stereo not drawn) [MMV007474]	99.3	104	104
CCCn1c(=N)c(C(=O)NC2CCCCC2)cc2c(=O)n3cccc(C)c3nc21 [MMV008829]	-21	54	45
Cc1ccccc1OCCSc1nc2ccc(NC(=O)c3cccs3)cc2s1 [MMV007396]	37.1	103	104
CCCCCCc1cc(O)c2c3c(c(=O)oc2c1)CCC(C)C3 (stereo not drawn) [MMV665987]	95.8	103	104
O=C(Nc1ccc(C23CC4CC(CC(c5ccccc5)(C4)C2)C3)cc1)c1cccs1 [MMV007574]	83.6	103	103
COC(=O)c1ccc(Cl)c2c1C1C=CCC1C(c1cccc3ccccc13)N2 (stereo not drawn) [MMV667489]	61.4	97	99
COc1ccc(-c2cc(=O)oc3c4c(ccc23)OCN(Cc2ccc(F)cc2)C4)cc1 [MMV000604]	57.1	100	101
Oc1ccc(Br)cc1CN1CCN(Cc2ccc(Cl)cc2)CC1 [MMV665809]	93.9	103	103
OC1=C2C(=Nc3ccccc3SC2c2ccc(Br)cc2)c2ccccc21 (stereo not drawn) [MMV007127]	64.3	103	103
O=c1cc(NC2CCN(CCCc3ccccc3)CC2)c2cc(Cl)ccc2o1 [MMV665786]	80.6	100	103
CCOC(=O)C1(Cc2ccccc2)CCN(Cc2cccc(OC)c2O)CC1 [MMV666109]	79	99	100
CCCCCCc1cc2cc(-c3nc4ccccc4[nH]3)c(=Nc3ccccc3C)oc2cc1O [MMV666597]	85.4	102	103
OC(Cn1nnc2ccccc21)Cn1c2ccc(Br)cc2c2cc(Br)ccc21 (stereo not drawn) [MMV666025]	43.6	99	97
COc1ccc(CNC(=O)c2cc3c(=O)n4ccccc4nc3n(CCc3ccccc3)c2=N)cc1 [MMV665881]	1.19	68	76
CCCCc1c(CCC)c(=N)c2ccccc2n1C [MMV007764]	83.9	103	103
CCCCCCC(O)(c1ccc(F)cc1)C(CN1CCOCC1)c1ccccc1 (stereo not drawn) [MMV000621]	98.1	104	103
CCOc1c(Cl)cc(CNC(C)C(O)c2ccccc2)cc1OC (stereo not drawn) [MMV665857]	98.7	102	103
COc1ccc2sc(N(Cc3cccnc3)C(=O)c3ccc(C#N)cc3)nc2c1 [MMV001239]	63.2	73	85
Cc1ccccc1OCCSc1nc2ccc(NC(=O)c3ccccc3)cc2s1 [MMV007577]	67.4	103	103
Cc1nc2ccccc2c(O)c1CC=C(Cl)Cl [MMV665994]	31.7	100	102
